# Numbered stars: 1 amine (or outer) side, 2 acyl side, 3 side chain; on linkers, the order of the positions; unused ones are H or OH. Square brackets hold non-standard residues; d marks the D form. Side chains are listed from the residue outwards. Peptide text beside a SMILES is read from it. * marks the point of attachment. C18 diacid = O=C(O)CCCCCCCCCCCCCCCCC(=O)*; γGlu = O=C(O)[C@H](CCC(=O)[*:2])N[*:1]; AEEA = NCCOCCOCC(=O)O; Aib = CC(C)(N)C(=O)O
# What was measured:
# [1] = physchem; type: physicochemical
# [2] = molecular target: T1, GC receptor (Homo sapiens, UniProt P47871); assay: GC receptor mediated cAMP production in vitro (HEK293 cells transfected with GC receptor); type: cell-based; settings: 20 min at 37° C., read-out: GCGR (nM EC50)
# T1 construct: expressed in transfected cells; host or cells: HEK293 cells
# From the text: (§1) The medium was removed, the cells were lysed, and cAMP values were detected referring to the detection method described for the assay kit.
# [3] = Glucose tolerance test in glucose-loaded DIO mice; type: in vivo; settings: DIO mice, conclusions on Tables 4 and 6
# In short: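 DIO mice fasted 16 h received compound subcutaneously; 1 h later, glucose 1 g/kg was given intraperitoneally. Blood glucose measured at 0.5, 1 and 1.5 h; AUC compared with model control group to give blood glucose inhibition rate (%).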
# [4] = Effect on body weight of DIO mice after 14 days' administration; type: in vivo, C57BL/6J mice; settings: DIO mice, 14 days, conclusions on Tables 3 and 5
# In short: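 C57BL/6J mice on H10060 high-fat diet for 34 weeks (DIO; 45.0–52.0 g), 5 per group, dosed subcutaneously once daily for 14 days; controls received saline. Body weight change (%) = (initial − last-day weight)/initial weight; positive values mean loss.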
# [5] = molecular target: T2, human GLP-1 receptor (Homo sapiens, UniProt P43220); assay: GLP-1 receptor mediated cAMP production in vitro; type: cell-based; settings: cells transfected with human GLP-1 receptor, 20 min at 37° C., read-out: GLP-1R (nM EC50)
# T2 construct: expressed in transfected cells; host or cells: Chinese guinea pig lung cells [sic]
# From the text: as §1
# [6] = Short-term administration: food intake and body weight in DIO mice; type: in vivo; settings: 30 nmol/kg once every 24 h, twice, − decrease
# In short: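 DIO mice (mean body weight 52.5 g), 5 per group, dosed at 30 nmol/kg every 24 h for two doses, in 10 mM PBS pH 7.4; controls received solvent. Food intake and body weight at 48 h expressed as change rate versus the day before dosing.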
# [7] = Accelerated chemical stability in injection solvent system (HPLC-UV); type: physicochemical; settings: 14 days, phosphate buffer pH 7.3 with Tween 80 and phenol, main peak area vs day 0
# In short: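 Compound dissolved in 10 mM pH 8.5 sodium hydrogen phosphate buffer, adjusted to pH 7.3, with Tween 80 and phenol added. Solutions stored 14 days at 10 °C and 37 °C; HPLC-UV main-peak area by normalisation compared against day 0.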
# 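For solubility in this document: compound added at 2 mg per mL of phosphate buffer, with the dissolved amount determined in the supernatant.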
# T1 sequence (P47871 26-477): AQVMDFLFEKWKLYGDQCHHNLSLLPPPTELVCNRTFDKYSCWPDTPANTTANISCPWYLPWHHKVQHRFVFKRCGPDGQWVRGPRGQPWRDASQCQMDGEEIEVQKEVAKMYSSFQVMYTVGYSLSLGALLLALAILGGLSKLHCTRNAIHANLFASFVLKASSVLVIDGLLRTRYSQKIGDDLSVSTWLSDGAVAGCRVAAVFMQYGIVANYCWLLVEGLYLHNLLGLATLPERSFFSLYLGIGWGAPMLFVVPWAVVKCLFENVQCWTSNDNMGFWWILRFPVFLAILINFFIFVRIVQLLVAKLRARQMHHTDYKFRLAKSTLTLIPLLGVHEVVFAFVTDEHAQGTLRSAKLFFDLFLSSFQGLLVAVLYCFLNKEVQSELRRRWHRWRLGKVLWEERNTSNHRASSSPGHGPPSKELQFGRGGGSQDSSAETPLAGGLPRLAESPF
# T2 sequence (P43220 24-463): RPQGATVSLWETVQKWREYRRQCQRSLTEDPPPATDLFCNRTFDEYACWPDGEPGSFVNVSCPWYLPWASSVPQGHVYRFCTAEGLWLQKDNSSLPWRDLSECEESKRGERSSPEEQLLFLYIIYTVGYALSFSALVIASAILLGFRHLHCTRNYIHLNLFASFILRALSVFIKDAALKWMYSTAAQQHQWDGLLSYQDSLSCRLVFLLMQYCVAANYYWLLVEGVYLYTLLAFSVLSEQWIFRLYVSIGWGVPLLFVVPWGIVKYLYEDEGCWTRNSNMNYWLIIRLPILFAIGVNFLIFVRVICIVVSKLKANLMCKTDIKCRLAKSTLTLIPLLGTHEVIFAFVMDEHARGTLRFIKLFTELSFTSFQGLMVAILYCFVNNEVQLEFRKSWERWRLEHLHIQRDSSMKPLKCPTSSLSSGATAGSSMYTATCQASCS
structure (smiles),measurement,setting,value
CC[C@H](C)[C@H](NC(=O)[C@H](Cc1ccccc1)NC(=O)[C@H](CCC(=O)O)NC(=O)[C@H](CCCCNC(=O)COCCOCCNC(=O)COCCOCCNC(=O)CC[C@H](NC(=O)CCCCCCCCCCCCCCCCC(=O)O)C(=O)O)NC(=O)[C@H](C)NC(=O)[C@H](CCCCN)NC(=O)[C@H](CCCNC(=N)N)NC(=O)[C@H](CCC(=O)O)NC(=O)[C@H](CC(=O)O)NC(=O)[C@H](CC(C)C)NC(=O)[C@H](Cc1ccc(O)cc1)NC(=O)[C@H](CCCCN)NC(=O)[C@H](CO)NC(=O)[C@H](Cc1ccc(O)cc1)NC(=O)[C@H](CC(=O)O)NC(=O)[C@H](CO)NC(=O)[C@@H](NC(=O)[C@H](Cc1ccccc1)NC(=O)[C@@H](NC(=O)CNC(=O)[C@H](CCC(N)=O)NC(=O)C(C)(C)NC(=O)[C@@H](N)Cc1c[nH]cn1)[C@@H](C)O)[C@@H](C)O)C(=O)N[C@@H](CCC(=O)O)C(=O)N[C@@H](Cc1c[nH]c2ccccc12)C(=O)N[C@@H](CC(C)C)C(=O)N[C@@H](CCC(=O)O)C(=O)NCC(=O)NCC(=O)N1CCC[C@H]1C(=O)N[C@@H](CO)C(=O)N[C@@H](CO)C(=O)NCC(N)=O [Compound 66] (H-H[Aib]QGTFTSDYSKYLDERKAK([AEEA-AEEA-γGlu-C18 diacid])EFIEWLEGGPSSG-NH2; N-terminus assumed),solubility,"[1]; pH 7.5, Solubility, pH 7.5, 10 mM phosphate buffer",1490 µg/mL
same,solubility,"[1]; pH 7.5, Solubility, pH 7.5, 20 mM phosphate buffer",1420 µg/mL
same,solubility,"[1]; pH 8, Solubility, pH 8.0, 10 mM phosphate buffer",> 2000 µg/mL
same,solubility,"[1]; pH 8, Solubility, pH 8.0, 20 mM phosphate buffer",1880 µg/mL
same,EC50,[2],0.058 nM
same,glucose tolerance / blood glucose lowering (in words),[3],significantly improved glucose tolerance
same,body weight reduction (in words),[4],significantly reduced body weight
same,EC50,[5],0.051 nM
same,Rate of change in food intake (%),[6]; at 48 hours vs day before administration,−56%
same,Body weight change,[6]; at 48 hours,-1.7 g
same,Change in purity % (10° C.),[7]; 10° C.,−2.7%
same,Change in purity % (37° C.),[7]; 37° C.,−5.1%

# From US12257287B2, “Glucagon-derived peptide and use thereof” (Tianjin Institute of Pharmaceutical Research Co., Ltd., priority 2018, dated 2025)
